Results taken from patent US20230293518A1 (Edgewise Therapeutics, Inc., priority 2020, published 2023).

Biological target: skeletal myofibrils (myosin ATPase)
Experiment: Skeletal Myofibril ATPase Assay
Assay type: biochemical
Settings: Table 4C
Summary of the method: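 Skeletal myofibril ATPase activity was measured via PK-LDH coupling, following NADH loss at 340 nm every 1.5-2 min for 45 min in PIPES/CaCl2/EGTA pCa buffer, pH 7.0. Max−Min slopes were normalised to 1% DMSO vehicle (100%) and fit to a four-parameter logistic (bottom ≥0) for IC50.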

Row | SMILES | IC50 [µM]
1 | CC(C)c1cccc(NC(=O)Cn2nc(-c3ccc4c(c3)OCCCO4)ccc2=O)c1 [IIIb-5, 2-(3-(3,4-dihydro-2H-benzo[b][1,4]dioxepin-7-yl)-6-oxopyridazin-1(6H)-yl)-N-(3-isopropylphenyl)acetamide] | < 10
2 | O=C(Cn1nc(-c2ccc3c(c2)OCCO3)ccc1=O)Nc1ccccc1F [IIIb-6, 2-(3-(2,3-dihydrobenzo[b][1,4]dioxin-6-yl)-6-oxopyridazin-1(6H)-yl)-N-(2-fluorophenyl)acetamide] | < 10
3 | COc1ccc(-c2ccc(=O)n(CC(=O)NCCC3=CCCCC3)n2)c(F)c1 [IIIb-7, N-(2-(cyclohex-1-en-1-yl)ethyl)-2-(3-(2-fluoro-4-methoxyphenyl)-6-oxopyridazin-1(6H)-yl)acetamide] | < 10
4 | COc1ccc(-c2ccc(=O)n(CC(=O)NC3Cc4ccccc4C3)n2)cc1 [IIIb-8, N-(2,3-dihydro-1H-inden-2-yl)-2-(3-(4-methoxyphenyl)-6-oxopyridazin-1(6H)-yl)acetamide] | < 10
5 | COc1ccc(-c2ccc(=O)n(CC(=O)NCCc3ccccc3)n2)c(F)c1 [IIIb-9, 2-(3-(2-fluoro-4-methoxyphenyl)-6-oxopyridazin-1(6H)-yl)-N-phenethylacetamide] | < 10
6 | COc1ccc(-c2ccc(=O)n(CC(=O)Nc3cc(Cl)ccc3Cl)n2)cc1 [IIIb-10, N-(2,5-dichlorophenyl)-2-(3-(4-methoxyphenyl)-6-oxopyridazin-1(6H)-yl)acetamide] | < 10
7 | COc1ccc(-c2ccc(=O)n(CC(=O)Nc3ccc(Cl)cc3Cl)n2)cc1 [IIIb-11, N-(2,4-dichlorophenyl)-2-(3-(4-methoxyphenyl)-6-oxopyridazin-1(6H)-yl)acetamide] | < 10
8 | COc1ccc(-c2ccc(=O)n(CC(=O)Nc3cc(Cl)ccc3Cl)n2)c(F)c1 [IIIb-13, N-(2,5-dichlorophenyl)-2-(3-(2-fluoro-4-methoxyphenyl)-6-oxopyridazin-1(6H)-yl)acetamide] | < 10
9 | COc1ccc(-c2ccc(=O)n(CC(=O)NCCC3=CCCCC3)n2)cc1 [IIIb-14, N-(2-(cyclohex-1-en-1-yl)ethyl)-2-(3-(4-methoxyphenyl)-6-oxopyridazin-1(6H)-yl)acetamide] | < 10
10 | COc1ccc(-c2ccc(=O)n(CC(=O)Nc3ccc4c(c3)OCCO4)n2)c(F)c1 [IIIb-15, N-(2,3-dihydrobenzo[b][1,4]dioxin-6-yl)-2-(3-(2-fluoro-4-methoxyphenyl)-6-oxopyridazin-1(6H)-yl)acetamide] | < 10
11 | COc1ccc(-c2ccc(=O)n(CC(=O)Nc3ccc4c(c3)OCCO4)n2)cc1 [IIIb-16, N-(2,3-dihydrobenzo[b][1,4]dioxin-6-yl)-2-(3-(4-methoxyphenyl)-6-oxopyridazin-1(6H)-yl)acetamide] | < 10
12 | COc1ccc(-c2ccc(=O)n(CC(=O)NC(C)C)n2)cc1 [IIIb-18, N-isopropyl-2-(3-(4-methoxyphenyl)-6-oxopyridazin-1(6H)-yl)acetamide] | 10 to 100
13 | COc1ccc(-c2ccc(=O)n(CC(=O)NC(C)C)n2)c(F)c1 [IIIb-19, 2-(3-(2-fluoro-4-methoxyphenyl)-6-oxopyridazin-1(6H)-yl)-N-isopropylacetamide] | 10 to 100
14 | COc1ccc(-c2ccc(=O)n(CC(=O)NCc3ccccc3)n2)cc1 [IIIb-20, N-benzyl-2-(3-(4-methoxyphenyl)-6-oxopyridazin-1(6H)-yl)acetamide] | 10 to 100
15 | COc1ccc(-c2ccc(=O)n(CC(=O)NCc3ccccc3OC)n2)cc1 [IIIb-21] | 10 to 100
16 | COc1ccc(-c2ccc(=O)n(CC(=O)NC3CC3)n2)cc1 [IIIb-22, N-cyclopropyl-2-(3-(4-methoxyphenyl)-6-oxopyridazin-1(6H)-yl)acetamide] | 10 to 100

Row | SMILES | IC50 [µM]
17 | COc1ccc(-c2ccc(=O)n(CC(=O)NC3CCCC3)n2)cc1 [IIIb-23, N-cyclopentyl-2-(3-(4-methoxyphenyl)-6-oxopyridazin-1(6H)-yl)acetamide] | 10 to 100
18 | O=C(Cn1nc(-c2ccc3c(c2)OCCCO3)ccc1=O)NC1CCCCCC1 [IIIb-24, N-cycloheptyl-2-(3-(3,4-dihydro-2H-benzo[b][1,4]dioxepin-7-yl)-6-oxopyridazin-1(6H)-yl)acetamide] | 10 to 100
19 | COc1ccc(-c2ccc(=O)n(CC(=O)Nc3cc(OC)ccc3OC)n2)cc1 [IIIb-25, N-(2,5-dimethoxyphenyl)-2-(3-(4-methoxyphenyl)-6-oxopyridazin-1(6H)-yl)acetamide] | 10 to 100
20 | C[C@@H](NC(=O)Cn1nc(-c2ccc3c(c2)OCCCO3)ccc1=O)c1ccc(F)cc1 [IIIb-26, (R)-2-(3-(3,4-dihydro-2H-benzo[b][1,4]dioxepin-7-yl)-6-oxopyridazin-1(6H)-yl)-N-(1-(4-fluorophenyl)ethyl)acetamide] | 10 to 100
21 | COc1ccc(-c2ccc(=O)n(CC(=O)Nc3ncccc3C)n2)cc1 [IIIb-27, 2-(3-(4-methoxyphenyl)-6-oxopyridazin-1(6H)-yl)-N-(3-methylpyridin-2-yl)acetamide] | 10 to 100
22 | COc1ccc(-c2ccc(=O)n(CC(=O)Nc3ccc4c(c3)OCO4)n2)cc1 [IIIb-28, N-(benzo[d][1,3]dioxol-5-yl)-2-(3-(4-methoxyphenyl)-6-oxopyridazin-1(6H)-yl)acetamide] | 10 to 100
23 | COc1ccc(-c2ccc(=O)n(CC(=O)NCC(C)C)n2)cc1 [IIIb-29, N-isobutyl-2-(3-(4-methoxyphenyl)-6-oxopyridazin-1(6H)-yl)acetamide] | 10 to 100
24 | COc1ccc(-c2ccc(=O)n(CC(=O)NC(C)CCc3ccccc3)n2)cc1 (stereo not shown) [IIIb-30, 2-(3-(4-methoxyphenyl)-6-oxopyridazin-1(6H)-yl)-N-(4-phenylbutan-2-yl)acetamide] | 10 to 100
25 | COc1ccc(-c2ccc(=O)n(CC(=O)NCc3ccc(Cl)cc3)n2)cc1 [IIIb-31, N-(4-chlorobenzyl)-2-(3-(4-methoxyphenyl)-6-oxopyridazin-1(6H)-yl)acetamide] | 10 to 100
26 | COc1ccc(-c2ccc(=O)n(CC(=O)NCc3cccc(F)c3)n2)cc1 [IIIb-32, N-(3-fluorobenzyl)-2-(3-(4-methoxyphenyl)-6-oxopyridazin-1(6H)-yl)acetamide] | 10 to 100
27 | COc1ccc(-c2ccc(=O)n(CC(=O)Nc3ccc4c(c3)OCO4)n2)c(F)c1 [IIIb-33, N-(benzo[d][1,3]dioxol-5-yl)-2-(3-(2-fluoro-4-methoxyphenyl)-6-oxopyridazin-1(6H)-yl)acetamide] | 10 to 100
28 | COc1ccc(CNC(=O)Cn2nc(-c3ccc(OC)cc3)ccc2=O)cc1 [IIIb-34, N-(4-methoxybenzyl)-2-(3-(4-methoxyphenyl)-6-oxopyridazin-1(6H)-yl)acetamide] | 10 to 100
29 | COc1ccc(-c2ccc(=O)n(CC(=O)Nc3ccc(Cl)cc3Cl)n2)c(F)c1 [IIIb-35, N-(2,4-dichlorophenyl)-2-(3-(2-fluoro-4-methoxyphenyl)-6-oxopyridazin-1(6H)-yl)acetamide] | 10 to 100
30 | COc1ccc(-c2ccc(=O)n(CC(=O)NC(C)CCc3ccccc3)n2)c(F)c1 (stereo not shown) [IIIb-36, 2-(3-(2-fluoro-4-methoxyphenyl)-6-oxopyridazin-1(6H)-yl)-N-(4-phenylbutan-2-yl)acetamide] | 10 to 100
31 | COc1ccc(-c2ccc(=O)n(CC(=O)NCc3ccco3)n2)cc1 [IIIb-37, N-(furan-2-ylmethyl)-2-(3-(4-methoxyphenyl)-6-oxopyridazin-1(6H)-yl)acetamide] | 10 to 100
